From patent publication US10183938B2, “Geminal substituted quinuclidine amide compounds as agonists of α-7 nicotonic acetylcholine receptors” (AXOVANT SCIENCES GMBH, priority 2014, dated 2019) come the findings set out here.

In assay [1] the target is human 5-HT3 serotonin receptors (Homo sapiens (Human), UniProt P46098). The experiment in a line: [3H]BRL 43694 competition binding. The note with it: CHO cell membranes, [3H]BRL 43694, Cheng Prusoff; read-out: h-5HT3 Ki.
For assay [2], the target named is human α7 nAChRs transiently expressed in Xenopus laevis oocytes (Homo sapiens (Human), UniProt P36544). Description: Oocyte electrophysiology screen (TEVC). The format is cell-based. The following applies: 0.01 mM test compound, peak current relative to 0.2 mM ACh. In outline: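 Oocytes expressing human α7 were clamped at −80 mV by TEVC. After a 0.2 mM ACh control pulse, test compound was applied at 0.01 mM for 30 s. Agonist response is peak current as % of the ACh response, in triplicate.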

Each structure is given as a SMILES string. pKi: −log10 of the molar value. Structures can show the parent of a compound that is named as a salt.

Sequence of human α7 nAChRs transiently expressed in Xenopus laevis oocytes (P36544 23-502 limits assumed): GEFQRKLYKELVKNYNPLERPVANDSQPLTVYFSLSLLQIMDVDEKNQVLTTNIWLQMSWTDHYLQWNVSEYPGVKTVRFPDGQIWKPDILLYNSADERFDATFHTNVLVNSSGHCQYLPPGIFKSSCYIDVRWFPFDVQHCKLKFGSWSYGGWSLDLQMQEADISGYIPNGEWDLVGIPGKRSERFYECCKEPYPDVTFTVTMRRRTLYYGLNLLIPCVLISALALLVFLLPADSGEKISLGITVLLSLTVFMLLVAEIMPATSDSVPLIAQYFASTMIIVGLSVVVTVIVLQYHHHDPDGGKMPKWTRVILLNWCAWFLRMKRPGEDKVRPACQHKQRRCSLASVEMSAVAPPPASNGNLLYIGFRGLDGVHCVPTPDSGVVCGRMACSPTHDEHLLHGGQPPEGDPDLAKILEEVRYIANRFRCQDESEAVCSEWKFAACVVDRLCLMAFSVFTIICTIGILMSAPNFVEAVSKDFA
Sequence of human 5-HT3 serotonin receptors (P46098 24-478): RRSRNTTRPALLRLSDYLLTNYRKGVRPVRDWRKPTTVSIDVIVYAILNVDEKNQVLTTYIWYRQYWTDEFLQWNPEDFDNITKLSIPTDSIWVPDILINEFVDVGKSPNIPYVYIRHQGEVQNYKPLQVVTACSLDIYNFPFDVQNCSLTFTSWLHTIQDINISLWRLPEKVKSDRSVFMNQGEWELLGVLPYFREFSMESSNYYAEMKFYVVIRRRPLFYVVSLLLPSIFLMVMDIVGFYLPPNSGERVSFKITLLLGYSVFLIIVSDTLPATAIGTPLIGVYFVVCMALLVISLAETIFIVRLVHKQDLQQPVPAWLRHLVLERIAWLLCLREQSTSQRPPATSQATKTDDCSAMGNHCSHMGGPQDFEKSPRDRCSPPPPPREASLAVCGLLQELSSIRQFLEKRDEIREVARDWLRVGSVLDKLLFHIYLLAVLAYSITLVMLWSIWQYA

As usually defined, the pKi is the negative decadic logarithm of the Ki, by convention in mol/L. In the case of `CC1(C)[C@H](NC(=O)c2cc3cccc(Cl)c3s2)C2CCN1CC2` [(R)-3, (R)-7-chloro-N-(2,2-dimethylquinuclidin-3-yl)benzo[b]thiophene-2-carboxamide hydrochloride], the pKi in assay [1] was 6.57. Also, the “% ACh @ 10 μM Oocyte” value in assay [2] amounted to 304 % ACh.
The corresponding values for `CC1(C)[C@H](NC(=O)c2cc3cccc(F)c3s2)C2CCN1CC2` [(R)-4, (R)—N-(2,2-dimethylquinuclidin-3-yl)-7-fluoro-benzo[b]thiophene-2-carboxamide hydrochloride] are 6.06 and 1060 % ACh.
The matching figures for `CC1(C)[C@H](NC(=O)c2ccc3ccsc3c2)C2CCN1CC2` [(R)-5, (R)—N-(2,2-dimethylquinuclidin-3-yl)benzo[b]thiophene-6-carboxamide hydrochloride]: 5.72 and 282 % ACh.
The matching figures for `CC1(C)[C@H](NC(=O)c2ccc3occc3c2)C2CCN1CC2` [(R)-6, (R)—N-(2,2-dimethylquinuclidin-3-yl)benzofuran-5-carboxamide hydrochloride]: less than 5.00 and 374 % ACh.
Turning to `CC1(C)[C@H](NC(=O)c2cc3cccc(C(F)(F)F)c3s2)C2CCN1CC2` [(R)-7, (R)—N-(2,2-dimethylquinuclidin-3-yl)-7-(trifluoromethyl)benzo[b]thiophene-2-carboxamide hydrochloride], the pKi in assay [1] is 5.47. In assay [2], the “% ACh @ 10 μM Oocyte” value was 466 % ACh.
For `CC1(C)[C@H](NC(=O)c2cc3ccc(F)cc3s2)C2CCN1CC2` [(R)-8, (R)—N-(2,2-dimethylquinuclidin-3-yl)-6-fluorobenzo[b]thiophene-2-carboxamide hydrochloride], the pKi in assay [1] is 5.19. Moreover, in assay [2], the “% ACh @ 10 μM Oocyte” value is 480 % ACh.
The corresponding values for `CC1(C)[C@H](NC(=O)c2cc3ccc(C#N)cc3s2)C2CCN1CC2` [(R)-9, (R)-6-cyano-N-(2,2-dimethylquinuclidin-3-yl)benzo[b]thiophene-2-carboxamide hydrochloride] are less than 5.00 and 2 % ACh.
The matching figures for `CC1(C)[C@H](NC(=O)c2cc3ccc(C(F)(F)F)cc3s2)C2CCN1CC2` [(R)-10, (R)—N-(2,2-dimethylquinuclidin-3-yl)-6-(trifluoromethyl)benzo[b]thiophene-2-carboxamide hydrochloride]: less than 5.00 and 1 % ACh.
Take `CC1(C)[C@H](NC(=O)c2cc3cc(F)ccc3s2)C2CCN1CC2` [(R)-11, (R)—N-(2,2-dimethylquinuclidin-3-yl)-5-fluorobenzo[b]thiophene-2-carboxamide hydrochloride]: the pKi in assay [1] was 5.77. In assay [2], the “% ACh @ 10 μM Oocyte” value is 552 % ACh.
The corresponding values for `CC1(C)[C@H](NC(=O)c2cc3cc(Cl)ccc3s2)C2CCN1CC2` [(R)-13, (R)-5-chloro-N-(2,2-dimethylquinuclidin-3-yl)benzo[b]thiophene-2-carboxamide hydrochloride] are 5.68 and 132 % ACh.
Turning to `CC1(C)[C@H](NC(=O)c2cc3cc(Cl)c(Cl)cc3s2)C2CCN1CC2` [(R)-14, (R)-5,6-dichloro-N-(2,2-dimethylquinuclidin-3-yl)benzo[b]thiophene-2-carboxamide hydrochloride], the pKi in assay [1] was less than 5.00. The “% ACh @ 10 μM Oocyte” value in assay [2] turned out to be 3 % ACh.
The matching figures for `Cc1ccc2cc(C(=O)N[C@@H]3C4CCN(CC4)C3(C)C)sc2c1` [(R)-15, (R)—N-(2,2-dimethylquinuclidin-3-yl)-6-methylbenzo[b]thiophene-2-carboxamide hydrochloride]: less than 5.00 and 539 % ACh.
The corresponding values for `Cc1ccc2sc(C(=O)N[C@@H]3C4CCN(CC4)C3(C)C)cc2c1` [(R)-16, (R)—N-(2,2-dimethylquinuclidin-3-yl)-5-methylbenzo[b]thiophene-2-carboxamide hydrochloride] are 5.60 and 74 % ACh.
The matching figures for `CC1(C)[C@H](NC(=O)c2cc3cc(C(F)(F)F)ccc3s2)C2CCN1CC2` [(R)-17, (R)—N-(2,2-dimethylquinuclidin-3-yl)-5-(trifluoromethyl)benzo[b]thiophene-2-carboxamide hydrochloride]: less than 5.00 and 0 % ACh.
As for `CC1(C)[C@H](NC(=O)c2cc3ccc(C4CC4)cc3s2)C2CCN1CC2` [(R)-18, (R)-6-cyclopropyl-N-(2,2-dimethylquinuclidin-3-yl)benzo[b]thiophene-2-carboxamide hydrochloride], the pKi in assay [1] was less than 5.00. The “% ACh @ 10 μM Oocyte” value in assay [2] is on record as 422 % ACh.
The matching figures for `CC1(C)[C@H](NC(=O)c2cc3cc(C4CC4)ccc3s2)C2CCN1CC2` [(R)-19, (R)-5-cyclopropyl-N-(2,2-dimethylquinuclidin-3-yl)benzo[b]thiophene-2-carboxamide hydrochloride]: 5.80 and 149 % ACh.
The corresponding values for `COc1ccc2cc(C(=O)N[C@@H]3C4CCN(CC4)C3(C)C)sc2c1` [(R)-20, (R)—N-(2,2-dimethylquinuclidin-3-yl)-6-methoxybenzo[b]thiophene-2-carboxamide hydrochloride] are less than 5.00 and 558 % ACh.
The matching figures for `CC1(C)[C@H](NC(=O)c2cc3ccoc3cn2)C2CCN1CC2` [(R)-22, (R)—N-(2,2-dimethylquinuclidin-3-yl)furo[2,3-c]pyridine-5-carboxamide hydrochloride]: 5.19 and 456 % ACh.
For `CC1(C)[C@H](NC(=O)c2cc3c(cn2)OCCO3)C2CCN1CC2` [(R)-23, (R)—N-(2,2-dimethylquinuclidin-3-yl)-2,3-dihydro-[1,4]dioxino[2,3-c]pyridine-7-carboxamide hydrochloride], the pKi in assay [1] is less than 5.00. Further, the “% ACh @ 10 μM Oocyte” value in assay [2] came out at 82 % ACh.
The matching figures for `Cc1csc2ccc(C(=O)N[C@@H]3C4CCN(CC4)C3(C)C)cc12` [(R)-24, (R)—N-(2,2-dimethylquinuclidin-3-yl)-3-methylbenzo[b]thiophene-5-carboxamide hydrochloride]: 6.09 and 240 % ACh.
The corresponding values for `CC1(C)[C@H](NC(=O)c2cc3cccnc3s2)C2CCN1CC2` [(R)-28, (R)—N-(2,2-dimethylquinuclidin-3-yl)thieno[2,3-b]pyridine-2-carboxamide hydrochloride] are less than 5.00 and 321 % ACh.
Take `CC1(C)[C@H](NC(=O)c2ccc3sccc3c2)C2CCN1CC2` [(R)-30, (R)—N-(2,2-dimethylquinuclidin-3-yl)benzo[b]thiophene-5-carboxamide hydrochloride]: in assay [1], the pKi is 5.64. Further, the “% ACh @ 10 μM Oocyte” value in assay [2] was found to be 396 % ACh.
Take `CC1(C)[C@H](NC(=O)c2cnc3occc3c2)C2CCN1CC2` [(R)-36, (R)—N-(2,2-dimethylquinuclidin-3-yl)furo[2,3-b]pyridine-5-carboxamide hydrochloride]: the negative logarithm of the Ki (pKi) in assay [1] is less than 5.00. Further, in assay [2], the “% ACh @ 10 μM Oocyte” value is recorded as 1 % ACh.
The matching figures for `CC1(C)[C@H](NC(=O)c2cc3ccsc3cn2)C2CCN1CC2` [(R)-43, (R)—N-(2,2-dimethylquinuclidin-3-yl)thieno[2,3-c]pyridine-5-carboxamide hydrochloride]: 5.82 and 951 % ACh.
The matching figures for `CC1(C)[C@H](NC(=O)c2cc3ccc(Br)cc3s2)C2CCN1CC2` [(R)-46, (R)-6-bromo-N-(2,2-dimethylquinuclidin-3-yl)benzo[b]thiophene-2-carboxamide hydrochloride]: less than 5.00 and 301 % ACh.
The corresponding values for `CC1(C)[C@H](NC(=O)c2cc3ccc(S(C)(=O)=O)cc3s2)C2CCN1CC2` [(R)-48, (R)—N-(2,2-dimethylquinuclidin-3-yl)-6-(methylsulfonyl)benzo[b]thiophene-2-carboxamide hydrochloride] are less than 5.00 and 0 % ACh.
In the case of `COc1ccc2cc(C(=O)N[C@@H]3C4CCN(CC4)C3(C)C)sc2c1F` [(R)-51, (R)—N-(2,2-dimethylquinuclidin-3-yl)-7-fluoro-6-methoxybenzo[b]thiophene-2-carboxamide hydrochloride], in assay [1], the pKi was less than 5.00. For the same molecule, the “% ACh @ 10 μM Oocyte” value in assay [2] was 326 % ACh.
With `Cc1ccc2cc(C(=O)N[C@@H]3C4CCN(CC4)C3(C)C)sc2c1Cl` [(R)-52, (R)-7-chloro-N-(2,2-dimethylquinuclidin-3-yl)-6-methylbenzo[b]thiophene-2-carboxamide hydrochloride], the pKi in assay [1] was 6.19. In addition, the “% ACh @ 10 μM Oocyte” value in assay [2] amounted to 844 % ACh.
The corresponding values for `Cc1ccc2cc(C(=O)N[C@@H]3C4CCN(CC4)C3(C)C)sc2c1F` [(R)-53, (R)—N-(2,2-dimethylquinuclidin-3-yl)-7-fluoro-6-methylbenzo[b]thiophene-2-carboxamide hydrochloride] are 5.23 and 576 % ACh.
Turning to `O=C(N[C@@H]1C2CCN(CC2)C12CC2)c1ccc2occc2c1` [(R)-59, (R)—N-(1′-azaspiro[cyclopropane-1,2′-bicyclo[2.2.2]octan]-3′-yl)benzofuran-5-carboxamide hydrochloride], the pKi in assay [1] is 5.17. The “% ACh @ 10 μM Oocyte” value in assay [2] is reported as 374 % ACh.
The corresponding values for `O=C(N[C@@H]1C2CCN(CC2)C12CC2)c1cc2ccoc2cn1` [(R)-75, (R)—N-(1′-azaspiro[cyclopropane-1,2′-bicyclo[2.2.2]octan]-3′-yl)furo[2,3-c]pyridine-5-carboxamide hydrochloride] are 5.48 and 594 % ACh.
